Assay [1] addresses T1, native human transporter glyt1 (Homo sapiens, UniProt P48067).
T1 construct: expressing the native human transporter glyt1; endogenous in cells; host or cells: SK-N-MC cells (human neuroepithelial cells)
T1 sequence (P48067 1-706): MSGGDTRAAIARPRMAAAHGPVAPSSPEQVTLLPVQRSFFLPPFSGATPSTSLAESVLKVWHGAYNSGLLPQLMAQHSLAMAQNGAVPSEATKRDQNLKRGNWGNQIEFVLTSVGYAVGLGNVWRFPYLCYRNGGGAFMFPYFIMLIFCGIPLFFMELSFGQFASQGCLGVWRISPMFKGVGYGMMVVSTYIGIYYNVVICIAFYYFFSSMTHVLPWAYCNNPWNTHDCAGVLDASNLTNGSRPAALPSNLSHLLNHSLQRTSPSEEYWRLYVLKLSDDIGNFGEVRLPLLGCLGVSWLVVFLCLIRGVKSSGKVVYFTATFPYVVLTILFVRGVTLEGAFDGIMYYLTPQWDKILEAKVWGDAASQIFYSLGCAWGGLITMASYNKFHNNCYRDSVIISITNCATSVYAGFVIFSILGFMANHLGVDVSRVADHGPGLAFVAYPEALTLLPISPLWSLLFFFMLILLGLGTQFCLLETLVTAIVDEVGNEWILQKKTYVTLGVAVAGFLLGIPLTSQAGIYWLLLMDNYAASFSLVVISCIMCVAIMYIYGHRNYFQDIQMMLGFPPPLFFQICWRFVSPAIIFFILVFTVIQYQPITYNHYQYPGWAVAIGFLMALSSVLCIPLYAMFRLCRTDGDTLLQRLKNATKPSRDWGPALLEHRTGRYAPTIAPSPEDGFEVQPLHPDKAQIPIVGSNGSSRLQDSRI
Put plainly: Transport of glycine ([14C]glycine capture) in SK-N-MC cells expressing the native human transporter glyt1. As to conditions: 10 μM [14C]glycine, 10 min at 37° C., pH 7.4, read-out: IC50, concentration which reduces by 50% the specific capture of glycine. Format: cell-based. The procedure:
Study of the Transport of Glycine in SK-N-MC Cells Expressing the Native Human Transporter Glyt1.
The capture of [^14C]glycine is studied in SK-N-MC cells (human neuroepithelial cells) expressing the native human transporter glyt1 by measuring the radioactivity incorporated in the presence or in the absence of the test compound. The cells are cultured in a monolayer for 48 h in plates pretreated with fibronectin at 0.02%. On the day of the experiment, the culture medium is removed and the cells are washed with a Krebs-HEPES ([4-(2-hydroxyethyl)piperazine]1-ethanesulfonic acid) buffer at pH 7.4. After a preincubation of 10 min at 37° C. in the presence either of buffer (control batch), or of test compound at various concentrations, or of 10 mM glycine (determination of the nonspecific capture), 10 μM [^14C]glycine (specific activity 112 mCi/mmol) are then added. The incubation is continued for 10 min at 37° C., and the reaction is stopped by 2 washes with a Krebs-HEPES buffer at pH 7.4. The radioactivity incorporated by the cells is then estimated after adding 100 μl of liquid scintillant and stirring for 1 h. The counting is performed on a Microbeta Tri-lux™ counter. The efficacy of the compound is determined by the IC50, the concentration of the compound which reduces by 50% the specific capture of glycine, defined by the difference in radioactivity incorporated by the control batch and the batch which received the glycine at 10 mM.

A further assay addresses T2, transporter glyt2 (Mus musculus, UniProt Q761V0).
T2 construct: from tissue; host or cells: mouse spinal cord homogenate (Iffa Crédo OF1 male mice)
T2 sequence (Q761V0 1-799): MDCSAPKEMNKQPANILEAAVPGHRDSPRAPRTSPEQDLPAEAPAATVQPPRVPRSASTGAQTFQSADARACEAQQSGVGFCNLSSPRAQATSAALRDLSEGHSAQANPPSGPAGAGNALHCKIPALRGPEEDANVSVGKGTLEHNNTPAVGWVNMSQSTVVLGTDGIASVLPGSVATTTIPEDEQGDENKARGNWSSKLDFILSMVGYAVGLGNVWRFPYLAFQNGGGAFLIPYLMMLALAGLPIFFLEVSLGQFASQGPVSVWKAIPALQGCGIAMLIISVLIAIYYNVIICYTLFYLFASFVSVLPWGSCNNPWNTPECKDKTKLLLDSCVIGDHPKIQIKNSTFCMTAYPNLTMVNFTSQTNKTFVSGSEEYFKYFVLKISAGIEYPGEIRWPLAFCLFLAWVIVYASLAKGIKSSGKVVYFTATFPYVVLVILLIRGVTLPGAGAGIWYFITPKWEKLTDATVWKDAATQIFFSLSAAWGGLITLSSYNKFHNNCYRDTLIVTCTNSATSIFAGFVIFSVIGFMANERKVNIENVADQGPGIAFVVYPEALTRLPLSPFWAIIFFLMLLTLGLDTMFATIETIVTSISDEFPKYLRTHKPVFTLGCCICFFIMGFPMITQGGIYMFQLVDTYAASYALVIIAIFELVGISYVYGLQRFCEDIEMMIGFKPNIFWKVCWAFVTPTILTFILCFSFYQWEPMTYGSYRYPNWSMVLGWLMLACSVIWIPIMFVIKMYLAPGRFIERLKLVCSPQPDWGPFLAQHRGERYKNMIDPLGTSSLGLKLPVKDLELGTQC
Briefly: Transport of glycine ([14C]glycine capture) in mouse spinal cord homogenate. In kind it is biochemical. As to conditions: 10 μM [14C]glycine, 10 min at 25° C., pH 7.4, read-out: IC50, concentration reducing by 50% the specific capture of glycine. The text has this:
Study of the Transport of Glycine in Mouse Spinal Cord Homogenate
The capture of [^14C]glycine by the transporter glyt2 is studied in mouse spinal cord homogenate by measuring the radioactivity incorporated in the presence or in the absence of the compound to be studied.
After the animals have been humanely killed (Iffa Crédo OF1 male mice weighing 20 to 25 g on the day of the experiment), the spinal cord of each animal is rapidly removed, weighed and stored on ice. The samples are homogenized in a Krebs-HEPES ([4-(2-hydroxyethyl)piperazine]1-ethanesulfonic acid) buffer, pH 7.4, at a rate of 25 ml/g of tissue.
50 μl of homogenate are preincubated for 10 min at 25° C. in the presence of Krebs-HEPES buffer, pH 7.4 and of compound to be studied at various concentrations, or of 10 mM glycine in order to determine the nonspecific capture. The [^14C]glycine (specific activity=112 mCi/mmol) is then added for 10 min at 25° C. at the final concentration of 10 μM. The reaction is stopped by filtration under vacuum and the radioactivity is estimated by solid scintillation by counting on a Microbeta Tri-lux™ counter.
The efficacy of the compound is determined by the concentration IC50 capable of reducing by 50% the specific capture of glycine, defined by the difference in radioactivity incorporated by the control batch and the batch which received the 10 mM glycine.

Data on five compounds can be found in US7619089B2, “Derivatives of N-heterocyclylmethylbenzamides, preparation method thereof and application of same in therapeutics” (Sanofi-Aventis, priority 2003, dated 2009).

Structures can show the parent of a compound that is named as a salt.

As for `O=C(N[C@@H](c1ccccc1)[C@@H]1CC2CCN1CC2)c1c(Cl)ccc(C(F)(F)F)c1Cl` [Compound No. 17], the IC50 in assay [1] is 1 nM; on transporter glyt2, 690 nM.

Turning to `O=C(NC(c1ccc(F)cc1)C1CC2CCN1CC2)c1c(Cl)ccc(C(F)(F)F)c1Cl` (stereo not drawn) [Compound No. 26, threo-N-[1-Azabicyclo[2.2.2]oct-2-yl(4-fluorophenyl)-methyl]-2,6-dichloro-3-(trifluoromethyl)benzamide hydrochloride 1:1], in assay [1], the IC50 came to 70 nM.

`O=C(NC(c1ccccc1)C1CC2CCN1CC2)c1c(Cl)ccc(C(F)(F)F)c1Cl` (stereo not drawn) [Compound No. 4, threo-2,6-Dichloro-N-[(1-azabicyclo[2.2.2]oct-2-yl)phenylmethyl]-3-trifluoromethylbenzamide hydrochloride 1:1]: the IC50 in assay [1] came to 4 nM. For `C=CC1CN2CCC1CC2C(NC(=O)c1cccc(C(F)(F)F)c1Cl)c1ccnc2ccccc12` [Compound No. 14, 2-Chloro-N-(8α,9S)cinchonan-9-yl)-3-trifluoromethyl-benzamide hydrochloride 2:1], the IC50 in assay [1] was 70 nM. As for `O=C(NC(c1ccccc1)C1CC2CCN1CC2)c1cccc(C(F)(F)F)c1Cl` (stereo not drawn) [Compound No. 3, threo-2-Chloro-N-[(1-azabicyclo[2.2.2]oct-2-yl)phenyl-methyl]-3-trifluoromethylbenzamide hydrochloride 1:1], the IC50 in assay [1] was found to be 17 nM.
